Laboratory results from paper PMC3426654 (Biochemistry, 2012).

Target: TcUGM (UDP-galactopyranose mutase from Trypanosoma cruzi) (Trypanosoma cruzi, UniProt Q4E1W2)
Assay: X-ray crystal structure, […] Å
Type: binding
Conditions: UDP complex, pH 7.5

Row | SMILES | X-ray crystal structure, 2.25 Å (crystals reduced by soaking in 60 mM dithionite) | X-ray crystal structure, 2.25 Å (oxidized enzyme)
1 | Cc1cc2c(cc1C)N(C[C@H](O)[C@H](O)[C@H](O)COP(=O)(O)OP(=O)(O)OC[C@H]1O[C@@H](n3cnc4c(N)ncnc43)[C@H](O)[C@@H]1O)c1[nH]c(=O)[nH]c(=O)c1N2 [FADH^−] | In the reduced enzyme, the FAD exhibits a butterfly-like conformation | 
2 | Cc1cc2nc3c(=O)[nH]c(=O)nc-3n(C[C@H](O)[C@H](O)[C@H](O)COP(=O)(O)OP(=O)(O)OC[C@H]3O[C@@H](n4cnc5c(N)ncnc54)[C@H](O)[C@@H]3O)c2cc1C [FAD] |  | In the oxidized state, the electron density maps are consistent with a planar isoalloxazine
